The text below walks through data of patent publication US10239887B2, “Positive allosteric modulators of the muscarinic acetylcholine receptor M4” (Vanderbilt University, priority 2016, dated 2019).

The target of the assay is T1, human mAChR M4 (Homo sapiens, UniProt P08173).
T1 sequence (P08173 1-479): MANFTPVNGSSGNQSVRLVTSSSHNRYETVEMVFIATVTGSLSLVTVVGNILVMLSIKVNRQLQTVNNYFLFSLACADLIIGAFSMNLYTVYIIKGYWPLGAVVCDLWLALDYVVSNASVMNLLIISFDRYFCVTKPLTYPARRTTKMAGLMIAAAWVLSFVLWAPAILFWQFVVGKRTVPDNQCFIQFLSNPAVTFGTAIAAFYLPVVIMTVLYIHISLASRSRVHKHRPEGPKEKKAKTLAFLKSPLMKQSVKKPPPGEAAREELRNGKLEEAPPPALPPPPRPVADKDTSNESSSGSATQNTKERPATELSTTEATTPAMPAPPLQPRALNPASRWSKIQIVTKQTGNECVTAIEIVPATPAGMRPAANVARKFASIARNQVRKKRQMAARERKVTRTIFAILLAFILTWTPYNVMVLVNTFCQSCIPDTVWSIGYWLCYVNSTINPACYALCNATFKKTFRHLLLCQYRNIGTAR
Nature of the assay: mAChR M4 cell-based functional assay (calcium flux), human M4. The settings on record: Table 11; for EC50: Human M4 EC50 (nM), calcium flux, PAM activity with EC20 acetylcholine; for Emax: % ACh maximum at 30 μM. (In general: Calcium assays in cells follow changes in intracellular calcium, usually with a dye or a luminescent sensor.)

For orientation: EC50 means the concentration needed to bring the measured effect to its halfway point. A word on the Emax: it is the maximal effect, on the per cent scale that the assay sets. Take `Cc1nnc2sc3c(NC4CN(c5ncc(Cl)cc5Cl)C4)ncnc3c2c1C` [Compound 314, N-[1-(3,5-dichloro-2-pyridyl)azetidin-3-yl]-3,4-dimethyl-pyrimido [4′,5′:4,5]thieno[2,3-c] pyridazin-8-amine]: the EC50 turned out to be 1830 nM and the maximal effect (Emax) was found to be 71.5%.

With `Cc1nnc2sc3c(NC4CN(c5ncc(Cl)cc5F)C4)ncnc3c2c1C` [Compound 315, N-[1-(5-chloro-3-fluoro-2-pyridyl)azetidin-3-yl]-3,4-dimethyl-pyrimido[4′,5′:4,5]thieno [2,3-c]pyridazin-8-amine], the EC50 turned out to be 659 nM and the Emax was 74.9%.

On to `Cc1nnc2sc3c(NCc4ccc(C(=O)NC5CCC5)c(Cl)c4)ncnc3c2c1C` [Compound 316, 2-chloro-N-cyclobutyl-4-[[(3,4-dimethylpyrimido [4′,5′:4,5]thieno[2,3-c]pyridazin-8-yl)amino]methyl]benzamide], for which the EC50 turned out to be 216 nM and the Emax worked out at 83.8%.

For the compound `Cc1nnc2sc3c(NCc4ccc(C(=O)NC5CCCC5)c(Cl)c4)ncnc3c2c1C` [Compound 317, 2-chloro-N-cyclopentyl-4-[[(3,4-dimethylpyrimido [4′,5′:4,5]thieno[2,3-c]pyridazin-8-yl)amino]methyl]benzamide], the EC50 worked out at 323 nM and the Emax was 75.1%.

As for `Cc1nnc2sc3c(NCc4ccc(C(=O)NC(C)C)c(Cl)c4)ncnc3c2c1C` [Compound 318, 2-chloro-4-[[(3,4-dimethylpyrimido[4′,5′:4,5]thieno[2,3-c]pyridazin-8-yl)amino]methyl]-N-isopropyl-benzamide], the EC50 was determined as 193 nM and the Emax was 81.7%.

Consider `Cc1nnc2sc3c(NCc4ccc(C(=O)NC5CC5(C)C)c(Cl)c4)ncnc3c2c1C` (stereo not shown) [Compound 319, 2-chloro-N-(2,2-dimethylcyclopropyl)-4-[[(3,4-dimethylpyrimido [4′,5′:4,5]thieno[2,3-c]pyridazin-8-yl)amino]methyl]benzamide], for which the EC50 amounted to 544 nM and the maximal response (Emax) came to 75.6%.

`Cc1nnc2sc3c(NCc4ccc(C(=O)N[C@H](C)C(F)(F)F)c(Cl)c4)ncnc3c2c1C` [Compound 320, 2-chloro-4-[[(3,4-dimethylpyrimido [4′,5′:4,5]thieno[2,3-c]pyridazin-8-yl)amino]methyl]-N-[(1R)-2,2,2-trifluoro-1-methyl-ethyl] benzamide]: the EC50 was found to be 532 nM and the Emax turned out to be 81.1%.

On to `Cc1nnc2sc3c(NCc4ccc(C(=O)NC5CC(F)C5)c(Cl)c4)ncnc3c2c1C` (stereo not shown) [Compound 321, 2-chloro-4-[[(3,4-dimethylpyrimido [4′,5′:4,5]thieno[2,3-c]pyridazin-8-yl)amino]methyl]-N-(3-fluorocyclobutyl) benzamide], for which the EC50 was 102 nM and the Emax was found to be 80.6%.

As to `Cc1nnc2sc3c(NCc4ccc(C(=O)NC5CC(F)(F)C5)c(Cl)c4)ncnc3c2c1C` [Compound 322, 2-chloro-N-(3,3-difluorocyclobutyl)-4-[[(3,4-dimethylpyrimido [4′,5′:4,5]thieno[2,3-c]pyridazin-8-yl)amino]methyl]benzamide], the EC50 came to 197 nM and the Emax was found to be 81.6%.

Regarding `Cc1nnc2sc3c(NCc4ccc(C(=O)NC(C)C5(CO)CC5)c(Cl)c4)ncnc3c2c1C` (stereo not shown) [Compound 323, 2-chloro-4-[[(3,4-dimethylpyrimido [4′,5′:4,5]thieno[2,3-c]pyridazin-8-yl)amino]methyl]-N-[1-[1-(hydroxymethyl)cyclopropyl]ethyl]benzamide], the EC50 was 449 nM and the Emax is 76.3%.

For the compound `COCCNC(=O)c1ccc(CNc2ncnc3c2sc2nnc(C)c(C)c23)cc1Cl` [Compound 324, 2-chloro-4-[[(3,4-dimethylpyrimido [4′,5′:4,5]thieno[2,3-c]pyridazin-8-yl)amino]methyl]-N-(2-methoxyethyl) benzamide], the EC50 turned out to be 164 nM and the Emax amounted to 84%.

Take `CNC(=O)c1ccc(CNc2ncnc3c2sc2nnc(C)c(C)c23)cc1Cl` [Compound 325, 2-chloro-4-[[(3,4-dimethylpyrimido [4′,5′:4,5]thieno[2,3-c]pyridazin-8-yl)amino]methyl]-N-methyl-benzamide]: the EC50 amounted to 62.2 nM and the Emax came to 78.8%.

Take `Cc1nnc2sc3c(NCc4ccc(-c5nccs5)cc4)ncnc3c2c1C` [Compound 326, 3,4-dimethyl-N-[(4-thiazol-2-ylphenyl)methyl]pyrimido[4′,5′:4,5] thieno[2,3-c]pyridazin-8-amine]: the concentration giving a half-maximal response (EC50) was 1070 nM and the Emax came out at 64.9%.

On to `Cc1nnc2sc3c(NCc4cccc(-c5ncccn5)c4)ncnc3c2c1C` [Compound 327, 3,4-dimethyl-N-[(3-pyrimidin-2-ylphenyl)methyl]pyrimido [4′,5′:4,5]thieno[2,3-c] pyridazin-8-amine], for which the EC50 turned out to be 1770 nM and the Emax worked out at 64.6%.

In the case of `Cc1nnc2sc3c(NCc4cccc(-n5cccn5)c4)ncnc3c2c1C` [Compound 328, 3,4-dimethyl-N-[(3-pyrazol-1-ylphenyl)methyl]pyrimido [4′,5′:4,5]thieno[2,3-c] pyridazin-8-amine], the EC50 came to 1970 nM and the Emax came to 63.6%.

For `Cc1nnc2sc3c(N4CC[C@H](Oc5ccnc(Cl)c5)C4)ncnc3c2c1C` [Compound 329, 8-[(3S)-3-[(2-chloro-4-pyridyl)oxy]pyrrolidin-1-yl]-3,4-dimethyl-pyrimido [4′,5′:4,5]thieno[2,3-c] pyridazine], the concentration for a half-maximal effect (EC50) is 107 nM and the Emax amounted to 76.6%.

As for `Cc1cc(O[C@H]2CCN(c3ncnc4c3sc3nnc(C)c(C)c34)C2)ccn1` [Compound 330, 3,4-dimethyl-8-[(3S)-3-[(2-methyl-4-pyridyl)oxy]pyrrolidin-1-yl]pyrimido [4′,5′:4,5]thieno[2,3-c] pyridazine], the EC50 was 111 nM and the Emax is 74.4%.

In the case of `Cc1nnc2sc3c(N4CC[C@H](Oc5ccnc(C(F)(F)F)c5)C4)ncnc3c2c1C` [Compound 331, 3,4-dimethyl-8-[(3S)-3-[[2-(trifluoromethyl)-4-pyridyl]oxy]pyrrolidin-1-yl]pyrimido [4′,5′:4,5]thieno[2,3-c] pyridazine], the EC50 was found to be 142 nM and the maximal effect (Emax) stood at 80.6%.

Take `Cc1nnc2sc3c(N4CC[C@H](Oc5cccnc5)C4)ncnc3c2c1C` [Compound 332, 3,4-dimethyl-8-[(3S)-3-(3-pyridyloxy)pyrrolidin-1-yl] pyrimido[4′,5′:4,5]thieno [2,3-c]pyridazine]: the EC50 turned out to be 129 nM and the maximal response (Emax) came out at 80.5%.

In the case of `CNC(=O)c1cc(CN(C)c2ncnc3c2sc2nnc(C)c(C)c23)ccc1F` [Compound 333, 5-[[(3,4-dimethylpyrimido [4′,5′:4,5]thieno[2,3-c]pyridazin-8-yl)(methyl)amino]methyl]-2-fluoro-N-methyl-benzamide], the EC50 was 1810 nM and the Emax was 39.1%.

In the case of `Cc1cc(CNc2ncnc3c2sc2nnc(C)c(C)c23)ccc1C(C)(C)O` [Compound 334, 2-[4-[[(3,4-dimethylpyrimido [4′,5′:4,5]thieno[2,3-c]pyridazin-8-yl)amino]methyl]-2-methyl-phenyl]propan-2-ol], the Emax was 90.6%.

Regarding `Cc1cc(C(C)(C)O)ccc1CNc1ncnc2c1sc1nnc(C)c(C)c12` [Compound 335, 2-[4-[[(3,4-dimethylpyrimido [4′,5′:4,5]thieno[2,3-c]pyridazin-8-yl)amino]methyl]-3-methyl-phenyl]propan-2-ol], the Emax was 71.1%.

Consider `Cc1nnc2sc3c(N4CC[C@@H](Oc5ccnc(Cl)c5)C4)ncnc3c2c1C` [Compound 336, 8-[(3R)-3-[(2-chloro-4-pyridyl)oxy]pyrrolidin-1-yl]-3,4-dimethyl-pyrimido [4′,5′:4,5]thieno[2,3-c] pyridazine], for which the EC50 turned out to be 105 nM and the Emax came out at 76.9%.

For the compound `Cc1nnc2sc3c(N4CC[C@@H](Oc5ccnc(C(F)(F)F)c5)C4)ncnc3c2c1C` [Compound 337, 3,4-dimethyl-8-[(3R)-3-[[2-(trifluoromethyl)-4-pyridyl]oxy]pyrrolidin-1-yl]pyrimido[4′,5′:4,5] thieno[2,3-c]pyridazine], the EC50 is 116 nM and the Emax is 80.2%.

For the compound `Cc1cc(O[C@@H]2CCN(c3ncnc4c3sc3nnc(C)c(C)c34)C2)ccn1` [Compound 338, 3,4-dimethyl-8-[(3R)-3-[(2-methyl-4-pyridyl)oxy]pyrrolidin-1-yl] pyrimido[4′,5′:4,5] thieno[2,3-c]pyridazine], the EC50 is 73.4 nM and the Emax is 74.6%.

Regarding `Cc1nnc2sc3c(NC4CC(O)(c5ccc(F)cc5)C4)ncnc3c2c1C` (stereo not shown) [Compound 339, 3-[(3,4-dimethylpyrimido [4′,5′:4,5]thieno[2,3-c]pyridazin-8-yl)amino]-1-(4-fluorophenyl) cyclobutanol], the EC50 was determined as 4900 nM and the Emax worked out at 50.9%.

Take `Cc1nnc2sc3c(N4CC[C@@H](Oc5cccnc5)C4)ncnc3c2c1C` [Compound 340, 3,4-dimethyl-8-[(3R)-3-(3-pyridyloxy)pyrrolidin-1-yl]pyrimido[4′,5′:4,5] thieno[2,3-c]pyridazine]: the EC50 came out at 101 nM and the Emax was determined as 72.9%.
